Measured values published in patent US20230114728A1 (Venatorx Pharmaceuticals, Inc., priority 2019, published 2023).
≈ marks a conversion by molar mass, not a printed value.

Tests used:
Experiment in all cases: Broth microdilution MIC in CAMHB
Format in all cases: cell-based
[1] = tested on: K. pneumoniae SI-117 producing VIM-1; settings: Klebsiella pneumoniae, read-out: Minimum Inhibitory Concentration, K. pneumoniae SI-117
In short: (§1)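 Lowest compound concentration with no visible growth after 16-20 h at 37 °C defines MIC. Plates of 2-fold serial dilutions in cation-adjusted Mueller Hinton broth received 2-8×10^5 CFU/mL of exponentially grown cells, per CLSI methods; panel spans reference, hyper-permeable and efflux-pump-deleted strains.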

E. coli D22 = settings: Escherichia coli; E. coli D22 (hyper-permeable); MHB; read-out: Minimum Inhibitory Concentration, E. coli D22
In short: as §1

A. baumannii ATCC 19606 = settings: Acinetobacter baumannii, ATCC19606; MHB; read-out: Minimum Inhibitory Concentration, A. baumannii ATCC 19606
In short: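 Hyper-permeable or efflux-deficient strains serve to probe outer-membrane penetration. Growth inhibition is scored visually after 16-20 h at 37° C in CAMHB, starting from 2-8×10^5 CFU/mL.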

E. coli AG100 = settings: Escherichia coli; E. coli AG100 (wild-type parent); MHB; read-out: Minimum Inhibitory Concentration, E. coli AG100
In short: as §1

[2] = tested on: K. pneumoniae UMM producing SHV-5 and KPC-2; settings: Klebsiella pneumoniae, read-out: Minimum Inhibitory Concentration, K. pneumoniae UMM
In short: as §1

E. coli 901C = settings: Escherichia coli; E. coli 901C (hyper-permeable); MHB; read-out: Minimum Inhibitory Concentration, E. coli 901C
In short: as §1

[3] = tested on: K. pneumoniae 848844 producing SHV-11 and KPC-2; settings: Klebsiella pneumoniae, read-out: Minimum Inhibitory Concentration, K. pneumoniae 848844
In short: as §1

E. coli AG100A = settings: Escherichia coli, read-out: Minimum Inhibitory Concentration, E. coli AG100A
In short: as §1

[4] = tested on: P. aeruginosa (ΔmexAB-oprM); settings: Pseudomonas aeruginosa, read-out: Minimum Inhibitory Concentration, P. aeruginosa ΔmexAB-OprM
In short: as §1

P. aeruginosa ATCC 27853 = settings: Pseudomonas aeruginosa, ATCC27853; MHB; read-out: Minimum Inhibitory Concentration, P. aeruginosa ATCC 27853
In short: as §1

P. aeruginosa ATCC 35151 = settings: Pseudomonas aeruginosa, ATCC35151; MHB; hyper-permeable strain; read-out: Minimum Inhibitory Concentration, P. aeruginosa ATCC 35151
In short: as §1

E. coli ATCC 25922 = settings: Escherichia coli, ATCC25922; E. coli ATCC 25922; MHB; read-out: Minimum Inhibitory Concentration, E. coli 25922
In short: as §1

SMILES | MIC [1] [µg/mL] | MIC (E. coli D22) [µg/mL] | MIC (A. baumannii ATCC 19606) [µg/mL] | MIC (E. coli AG100) [µg/mL] | MIC [2] [µg/mL] | MIC (E. coli 901C) [µg/mL] | MIC [3] [µg/mL] | MIC (E. coli AG100A) [µg/mL] | MIC [4] [µg/mL] | MIC (P. aeruginosa ATCC 27853) [µg/mL] | MIC (P. aeruginosa ATCC 35151) [µg/mL] | MIC (E. coli ATCC 25922) [µg/mL]
NCCN1CCN(C(=O)NC(C(=O)N[C@H]2Cc3cccc(C(=O)O)c3OB2O)c2ccc(C(=O)O)c(Cl)c2)C(=O)C1=O (stereo partly drawn) [Example 153, (3R)-3-(2-(4-(2-aminoethyl)-2,3-dioxopiperazine-1-carboxamido)-2-(4-carboxy-3-chlorophenyl)acetamido)-2-hydroxy-3,4-dihydro-2H-benzo[e][1,2]oxaborinine-8-carboxylic acid] | > 128 | 2 to 4 (≈ 3.32 to 6.65 µM) | > 128 | 32 to 64 (≈ 53.2 to 106 µM) | 32 to 64 (≈ 53.2 to 106 µM) | 0.5 to 1 (≈ 0.831 to 1.66 µM) | > 128 | 8 to 16 (≈ 13.3 to 26.6 µM) | 8 to 16 (≈ 13.3 to 26.6 µM) | 32 to 64 (≈ 53.2 to 106 µM) | 0.5 to 1 (≈ 0.831 to 1.66 µM) | 32 to 64 (≈ 53.2 to 106 µM)
O=C(O)c1cccc2c1OB(O)[C@@H](NC(=O)C(NC(=O)N1CCNC1=O)c1c(F)cc(O)cc1F)C2 (stereo partly drawn) [Example 156, (3R)-3-(2-(2,6-difluoro-4-hydroxyphenyl)-2-(2-oxoimidazolidine-1-carboxamido)acetamido)-2-hydroxy-3,4-dihydro-2H-benzo[e][1,2]oxaborinine-8-carboxylic acid] | 32 to 64 (≈ 63.5 to 127 µM) | 8 to 16 (≈ 15.9 to 31.7 µM) | > 128 | 32 to 64 (≈ 63.5 to 127 µM) | 32 to 64 (≈ 63.5 to 127 µM) | 0.5 to 1 (≈ 0.992 to 1.98 µM) | 32 to 64 (≈ 63.5 to 127 µM) | 2 to 4 (≈ 3.97 to 7.93 µM) | 8 to 16 (≈ 15.9 to 31.7 µM) | > 128 | 0.5 to 1 (≈ 0.992 to 1.98 µM) | 32 to 64 (≈ 63.5 to 127 µM)
CCN1CCN(C(=O)NC(C(=O)N[C@H]2Cc3cccc(C(=O)O)c3OB2O)c2c(F)cc(C(=O)O)cc2F)C(=O)C1=O (stereo partly drawn) [Example 157, (3R)-3-(2-(4-carboxy-2,6-difluorophenyl)-2-(4-ethyl-2,3-dioxopiperazine-1-carboxamido)acetamido)-2-hydroxy-3,4-dihydro-2H-benzo[e][1,2]oxaborinine-8-carboxylic acid] | > 128 | 2 to 4 (≈ 3.4 to 6.8 µM) | > 128 | 32 to 64 (≈ 54.4 to 109 µM) | 32 to 64 (≈ 54.4 to 109 µM) | < 0.25 | > 128 | 8 to 16 (≈ 13.6 to 27.2 µM) | 8 to 16 (≈ 13.6 to 27.2 µM) | > 128 | 0.5 to 1 (≈ 0.85 to 1.7 µM) | 32 to 64 (≈ 54.4 to 109 µM)
CCN1CCN(C(=O)NC(C(=O)N[C@H]2Cc3cccc(C(=O)O)c3OB2O)c2cc(F)c(O)c(F)c2)C(=O)C1=O (stereo partly drawn) [Example 160, (3R)-3-(2-(3,5-difluoro-4-hydroxyphenyl)-2-(4-ethyl-2,3-dioxopiperazine-1-carboxamido)acetamido)-2-hydroxy-3,4-dihydro-2H-benzo[e][1,2]oxaborinine-8-carboxylic acid] | > 128 | 2 to 4 (≈ 3.57 to 7.14 µM) | > 128 | 32 to 64 (≈ 57.1 to 114 µM) | 32 to 64 (≈ 57.1 to 114 µM) | < 0.25 | 32 to 64 (≈ 57.1 to 114 µM) | 2 to 4 (≈ 3.57 to 7.14 µM) | 2 to 4 (≈ 3.57 to 7.14 µM) | > 128 | < 0.25 | 32 to 64 (≈ 57.1 to 114 µM)
NCCN1CCN(C(=O)NC(C(=O)N[C@H]2Cc3cccc(C(=O)O)c3OB2O)c2cc(F)c(O)c(Cl)c2)C(=O)C1=O (stereo partly drawn) [Example 163, (3R)-3-(2-(4-(2-aminoethyl)-2,3-dioxopiperazine-1-carboxamido)-2-(3-chloro-5-fluoro-4-hydroxyphenyl)acetamido)-2-hydroxy-3,4-dihydro-2H-benzo[e][1,2]oxaborinine-8-carboxylic acid] | > 128 | 8 to 16 (≈ 13.5 to 27 µM) | > 128 | 32 to 64 (≈ 54.1 to 108 µM) | 32 to 64 (≈ 54.1 to 108 µM) | 0.5 to 1 (≈ 0.845 to 1.69 µM) | > 128 | 2 to 4 (≈ 3.38 to 6.76 µM) | 2 to 4 (≈ 3.38 to 6.76 µM) | 32 to 64 (≈ 54.1 to 108 µM) | < 0.25 | 32 to 64 (≈ 54.1 to 108 µM)
CCN1CCN(C(=O)NC(C(=O)N[C@H]2Cc3cccc(C(=O)O)c3OB2O)c2cc(F)c(O)c(Cl)c2)C(=O)C1=O (stereo partly drawn) [Example 164, (3R)-3-(2-(3-chloro-5-fluoro-4-hydroxyphenyl)-2-(4-ethyl-2,3-dioxopiperazine-1-carboxamido)acetamido)-2-hydroxy-3,4-dihydro-2H-benzo[e][1,2]oxaborinine-8-carboxylic acid] | > 128 | 2 to 4 (≈ 3.47 to 6.94 µM) | > 128 | 32 to 64 (≈ 55.5 to 111 µM) | 32 to 64 (≈ 55.5 to 111 µM) | < 0.25 | > 128 | 2 to 4 (≈ 3.47 to 6.94 µM) | 2 to 4 (≈ 3.47 to 6.94 µM) | > 128 | < 0.25 | 32 to 64 (≈ 55.5 to 111 µM)
